Test results published in patent US20230086702A1, “SUBSTITUTED 2-AMINO-PYRAZOLYL-[1,2,4]TRIAZOLO[1,5A]PYRIDINE DERIVATIVES AND USE THEREOF” (The Johns Hopkins University, priority 2019, published 2023).
pIC50: −log10 of the molar value.

Experiments:
DLK = molecular target: T1, DLK (Homo sapiens, UniProt Q12852); experiment: DLK biochemical assay (TR-FRET, MKK7 phosphorylation)
T1 construct: 10 nM DLK, catalytic domain, Carna Biosiences; purchased Carna Biosciences ('Carna Biosiences' [sic])
T1 sequence (Q12852 125-366 limits assumed): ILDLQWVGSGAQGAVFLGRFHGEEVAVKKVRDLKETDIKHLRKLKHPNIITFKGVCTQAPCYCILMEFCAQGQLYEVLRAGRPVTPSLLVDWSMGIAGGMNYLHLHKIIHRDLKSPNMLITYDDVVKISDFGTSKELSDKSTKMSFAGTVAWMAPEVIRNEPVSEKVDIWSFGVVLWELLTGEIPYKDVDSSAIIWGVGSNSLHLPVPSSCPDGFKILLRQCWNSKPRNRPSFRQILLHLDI
Procedure, shortened: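 DLK catalytic domain (10 nM) phosphorylates His-MKK7 (15 nM) at 60 μM ATP for 90 min at RT in pH 7.5 Hepes buffer (final concentrations). Phospho-T275/S277 is detected by TR-FRET (Eu anti-phospho donor, XL665 anti-His acceptor) after 16 h at 37° C (1536 format) or 4° C (384 format).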

LZK = molecular target: T2, LZK (Homo sapiens, UniProt O43283); experiment: LZK biochemical assay (TR-FRET, MKK7 phosphorylation)
T2 construct: 10 nM LZK, catalytic domain, Carna Biosiences in assay buffer; purchased Carna Biosciences ('Carna Biosiences' [sic])
T2 sequence (O43283 168-409 limits assumed): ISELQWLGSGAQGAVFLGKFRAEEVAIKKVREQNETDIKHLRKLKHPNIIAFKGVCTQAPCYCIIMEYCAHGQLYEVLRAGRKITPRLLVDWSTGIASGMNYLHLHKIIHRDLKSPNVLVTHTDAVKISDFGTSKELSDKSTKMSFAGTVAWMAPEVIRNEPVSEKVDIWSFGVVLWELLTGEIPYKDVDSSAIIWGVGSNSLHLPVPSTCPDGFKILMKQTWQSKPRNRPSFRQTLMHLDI
Procedure, shortened: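 LZK catalytic domain (10 nM) phosphorylates His-MKK7 (15 nM) with 15 µM ATP, all final, for 90 min at RT in HEPES buffer pH 7.5 with MgCl2. Phospho-T275/S277 detected by TR-FRET (Eu anti-phospho donor, XL665 anti-His acceptor) after 16 h at 32 °C in EDTA stop buffer. Inhibition lowers the 665/Eu ratio.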

Compound: CCC(c1ccc(C(F)(F)F)nc1)n1cc(-c2cc(-c3cc(CO)ccc3Cl)c3nc(N)nn3c2)cn1 (single isomer, unassigned) [II-3, {3-[2-Amino-6-(1-{1-[6-(trifluoromethyl)pyridin-3-yl]propyl}-1H-pyrazol-4-yl)[1,2,4]triazolo[1,5-a]pyridin-8-yl]-4-chlorophenyl}methanol]
- pIC50 (DLK): 7.92
- pIC50 (LZK): 8.19

Compound: CCC(c1ccc(C(F)(F)F)nc1)n1cc(-c2cc(-c3ccc(=O)n(CC(F)(F)F)c3)n3nc(N)nc3c2)cn1 (single isomer, unassigned) [II-189, 5-[2-Amino-7-(1-{1-[6-(trifluoromethyl)pyridin-3-yl]propyl}-1H-pyrazol-4-yl)[1,2,4]triazolo[1,5-a]pyridin-5-yl]-1-(2,2,2-trifluoroethyl)pyridin-2(1H)-one]
- pIC50 (DLK): 7.82
- pIC50 (LZK): 7.49

Compound: CCC(c1ccc(C(F)(F)F)nc1)n1cc(-c2cc(-c3cc(CO)ccc3Cl)c3nc(N)nn3c2)cn1 (racemic) [II-1, {3-[2-Amino-6-(1-{1-[6-(trifluoromethyl)pyridin-3-yl]propyl}-1H-pyrazol-4-yl)[1,2,4]triazolo[1,5-a]pyridin-8-yl]-4-chlorophenyl}methanol]
- pIC50 (DLK): 8.20
- pIC50 (LZK): 8.64

Compound: Nc1nc2c(-c3ccn(CC(F)(F)F)c(=O)c3)cc(-c3cnn(C(c4ccc(C(F)(F)F)nc4)C4CCOCC4)c3)cn2n1 (single isomer, unassigned) [II-176, 4-[2-Amino-6-(1-{tetrahydro-2H-pyran-4-yl[6-(trifluoromethyl)pyridin-3-yl]methyl}-1H-pyrazol-4-yl)[1,2,4]triazolo[1,5-a]pyridin-8-yl]-1-(2,2,2-trifluoroethyl)pyridin-2(1H)-one]
- pIC50 (DLK): 8.80
- pIC50 (LZK): 8.25

Compound: CC(C)C(c1ccc(C(F)(F)F)nc1)n1cc(-c2cc(-c3ccnc(C(F)(F)F)c3)n3nc(N)nc3c2)cn1 (single isomer, unassigned) [II-30, 7-(1-{2-Methyl-1-[6-(trifluoromethyl)pyridin-3-yl]propyl}-1H-pyrazol-4-yl)-5-[2-(trifluoromethyl)pyridin-4-yl][1,2,4]triazolo[1,5-a]pyridin-2-amine]
- pIC50 (DLK): 8.06
- pIC50 (LZK): 8.17

Compound: Nc1nc2cc(-c3cnn(Cc4ccnc(OC(F)(F)F)c4)c3)cc(-c3cnn(CC(F)(F)F)c3)n2n1 [II-135, 5-[1-(2,2,2-Trifluoroethyl)-1H-pyrazol-4-yl]-7-(1-{[2-(trifluoromethoxy)pyridin-4-yl]methyl}-1H-pyrazol-4-yl)[1,2,4]triazolo[1,5-a]pyridin-2-amine]
- pIC50 (DLK): 7.72
- pIC50 (LZK): 7.15

Compound: Nc1nc2cc(-c3cnn(C(c4ccc(C(F)(F)F)nc4)C4CCOCC4)c3)cc(-c3ccc(=O)n(C(F)F)c3)n2n1 (single isomer, unassigned) [II-183, 5-[2-Amino-7-(1-{tetrahydro-2H-pyran-4-yl[6-(trifluoromethyl)pyridin-3-yl]methyl}-1H-pyrazol-4-yl)[1,2,4]triazolo[1,5-a]pyridin-5-yl]-1-(difluoromethyl)pyridin-2(1H)-one]
- pIC50 (DLK): 7.66
- pIC50 (LZK): 7.72

Compound: CS(=O)(=O)c1cccc(-c2cc(-c3cnn(C(c4ccc(C(F)(F)F)nc4)C4CCOCC4)c3)cn3nc(N)nc23)c1 (single isomer, unassigned) [II-14, 8-[3-(Methylsulfonyl)phenyl]-6-(1-{tetrahydro-2H-pyran-4-yl[6-(trifluoromethyl)pyridin-3-yl]methyl}-1H-pyrazol-4-yl)[1,2,4]triazolo[1,5-a]pyridin-2-amine]
- pIC50 (DLK): 9.22
- pIC50 (LZK): 8.89

Compound: CCC(c1ccc(C(F)(F)F)nc1)n1cc(-c2cc(-c3cccc(C(C)(C)O)c3)c3nc(N)nn3c2)cn1 (single isomer, unassigned) [II-8, 2-{3-[2-Amino-6-(1-{1-[6-(trifluoromethyl)pyridin-3-yl]propyl}-1H-pyrazol-4-yl)[1,2,4]triazolo[1,5-a]pyridin-8-yl]phenyl}propan-2-ol]
- pIC50 (DLK): 8.43
- pIC50 (LZK): 8.10

Compound: Nc1nc2cc(-c3cnn(Cc4ccccc4)c3)cc(-c3cnc(C4CC4)nc3)n2n1 [II-84, 7-(1-Benzyl-1H-pyrazol-4-yl)-5-(2-cyclopropylpyrimidin-5-yl)[1,2,4]triazolo[1,5-a]pyridin-2-amine]
- pIC50 (DLK): 7.26
- pIC50 (LZK): 6.54

Compound: CC(C)C(c1ccc(C(F)(F)F)nc1)n1cc(-c2cc(-c3ccc(C4CC4)nc3)c3nc(N)nn3c2)cn1 (racemic) [II-43, 8-(6-Cyclopropylpyridin-3-yl)-6-(1-{2-methyl-1-[6-(trifluoromethyl)pyridin-3-yl]propyl}-1H-pyrazol-4-yl)[1,2,4]triazolo[1,5-a]pyridin-2-amine]
- pIC50 (DLK): 8.38
- pIC50 (LZK): 7.59

Compound: Nc1nc2c(-c3cccc(S(=O)(=O)C(F)(F)F)c3)cc(-c3cnn(C(c4ccc(C(F)(F)F)nc4)C4CCOCC4)c3)cn2n1 (racemic) [II-19, 6-(1-{Tetrahydro-2H-pyran-4-yl[6-(trifluoromethyl)pyridin-3-yl]methyl}-1H-pyrazol-4-yl)-8-{3-[(trifluoromethyl)sulfonyl]phenyl}[1,2,4]triazolo[1,5-a]pyridin-2-amine]
- pIC50 (DLK): 7.77
- pIC50 (LZK): 7.35

Compound: Nc1nc2c(-c3cc(CO)ccc3Cl)cc(-c3cnn(C(c4ccc(C(F)(F)F)nc4)C4CCOCC4)c3)cn2n1 (racemic) [II-4, {3-[2-Amino-6-(1-{tetrahydro-2H-pyran-4-yl[6-(trifluoromethyl)pyridin-3-yl]methyl}-1H-pyrazol-4-yl)[1,2,4]triazolo[1,5-a]pyridin-8-yl]-4-chlorophenyl}methanol]
- pIC50 (DLK): 8.15
- pIC50 (LZK): 8.23

Compound: CCC(c1ccc(C(F)(F)F)nc1)n1cc(-c2cc(-c3ccnc(C4(F)CC4)c3)n3nc(N)nc3c2)cn1 (single isomer, unassigned) [II-32, 5-[2-(1-Fluorocyclopropyl)pyridin-4-yl]-7-(1-{1-[6-(trifluoromethyl)pyridin-3-yl]propyl}-1H-pyrazol-4-yl)[1,2,4]triazolo[1,5-a]pyridin-2-amine]
- pIC50 (DLK): 7.18
- pIC50 (LZK): 7.80

Compound: CC(C)C(c1ccc(C(F)(F)F)nc1)n1cc(-c2cc(-c3ccc(C(F)F)nc3)n3nc(N)nc3c2)cn1 (single isomer, unassigned) [II-72, 5-[6-(Difluoromethyl)pyridin-3-yl]-7-(1-{2-methyl-1-[6-(trifluoromethyl)pyridin-3-yl]propyl}-1H-pyrazol-4-yl)[1,2,4]triazolo[1,5-a]pyridin-2-amine]
- pIC50 (DLK): 7.80
- pIC50 (LZK): 7.77

Compound: Nc1nc2c(-c3cn(CC(F)(F)F)c(=O)cn3)cc(-c3cnn(C(c4ccc(C(F)(F)F)nc4)C4CCOCC4)c3)cn2n1 (centres unmarked) [II-166]
- pIC50 (DLK): 8.40
- pIC50 (LZK): 7.57

Compound: CC(C)C(c1ccc(C(F)(F)F)nc1)n1cc(-c2cc(-c3ccc(C(F)(F)F)nc3)c3nc(N)nn3c2)cn1 (single isomer, unassigned) [II-41, 6-(1-{2-Methyl-1-[6-(trifluoromethyl)pyridin-3-yl]propyl}-1H-pyrazol-4-yl)-8-[6-(trifluoromethyl)pyridin-3-yl][1,2,4]triazolo[1,5-a]pyridin-2-amine]
- pIC50 (DLK): 6.42
- pIC50 (LZK): 6.11

Compound: CC[C@@H](c1ccccc1)n1cc(-c2cc(-c3cnn(CC(F)(F)F)c3)c3nc(N)nn3c2)cn1 [II-93, 6-{1-[(1S)-1-Phenylpropyl]-1H-pyrazol-4-yl}-8-[1-(2,2,2-trifluoroethyl)-1H-pyrazol-4-yl][1,2,4]triazolo[1,5-a]pyridin-2-amine]
- pIC50 (DLK): 7.72
- pIC50 (LZK): 7.17

Compound: CN(C)c1cccc(-c2cc(-c3cnn(C(c4ccc(C(F)(F)F)nc4)C4CCOCC4)c3)cn3nc(N)nc23)c1 (single isomer, unassigned) [II-23, 8-[3-(Dimethylamino)phenyl]-6-(1-{tetrahydro-2H-pyran-4-yl[6-(trifluoromethyl)pyridin-3-yl]methyl}-1H-pyrazol-4-yl)[1,2,4]triazolo[1,5-a]pyridin-2-amine]
- pIC50 (DLK): 8.35
- pIC50 (LZK): 8.04
